Source: ChEMBL document CHEMBL3507680, “University of Dundee, Gates Library screen for HepG2 cell viability”

experiment: Human HepG2 cell viability assay in 384 well format; format: toxicity, cell-based; parameters: dose 125 nL, time 70.5 hour; concentration not given beside the values; conditions: HepG2 cells, read-out: Inhibition

| SMILES | cytotoxicity at 70.5 h [%] |
| --- | --- |
| CCC(NC(=O)c1cc(OC)c2c(c1)OCCO2)c1cccs1 (stereo not given) | -8.09 |
| Cc1nn(C)c2c(=O)n(CC(=O)NCCC3=CCCCC3)ccc12 | -1.87 |
| CCC(CC)c1nnc(NC(=O)N2CCCC(NC(C)=O)C2)s1 (stereo not given) | -5.89 |
| Cc1cc2n(n1)CC(CNC1CCN(Cc3ccncc3)CC1)CN2 (stereo not given) | -0.58 |
| COCCc1noc(CN2CCCC2c2c(C)nn(C)c2Cl)n1 (stereo not given) | -0.0583 |
| N#Cc1ccc(CNCC(C(=O)N2CCOCC2)c2ccccc2)cc1 (stereo not given) | -3 |
| CSc1ccccc1NC(=O)C1CSc2ncc(C)c(=O)n2C1 (stereo not given) | -10.7 |
| Cc1nn(C)c(Oc2cccc(F)c2)c1NC(=O)C1CCCO1 (stereo not given) | -6.09 |
| CC(C)OC[C@H]1CCC[C@]12CN(S(=O)(=O)C1CC1)CCO2 | -0.771 |
| CCc1cccc(N2CCC(NC(=O)CCNC(N)=O)CC2)c1 | -6.16 |
| COCCN1C(=O)CCC12CCCN(c1ncc(F)cn1)CC2 (stereo not given) | 1.58 |
| Cc1cc(C(=O)N2CCCC(n3cncn3)C2)c(C)n1CC1CC1 (stereo not given) | -2.26 |
| CCCc1nc(CN2CCN(C(C)c3nc(C4CC4)no3)CC2)no1 (stereo not given) | -5.86 |
| OC1(CN2CCCCC2)CCN(c2ccc(C(F)(F)F)cn2)C1 (stereo not given) | -4.17 |
| CN(C)C(=O)[C@H]1C[C@H]2[C@H](CCN2Cc2ccc3c(c2)OCO3)O1 | -14.7 |
| OCCOc1cc(F)ccc1NCc1ccc(F)c(F)c1 | -2.79 |
| Cc1cccc(NC(=O)CN(C)C(=O)c2scnc2C)n1 | 0.715 |
| O=C(NCc1ccc(OCC2CC2)nc1)Nc1c(F)cccc1F | -2.96 |
| CCN(CC1CCOC1)C(=O)c1cccnc1N1CCOCC1 (stereo not given) | 0.841 |
| CNc1nc(C2CCCN(C(=O)C3CCCCC3)C2)nc2c1CNCC2 (stereo not given) | -3.63 |
| CC(c1ccccc1F)N(C(=O)CSCC(N)=O)C1CC1 (stereo not given) | 5.29 |
| CC(=O)N1CCC(N[C@@H]2CC[C@@H]2NS(=O)(=O)c2cccnc2)CC1 | 2.57 |
| Cc1cc(C)n(C2CN(CC(O)c3ccc(C(F)(F)F)cc3)C2)n1 (stereo not given) | -4.01 |

| SMILES | cytotoxicity at 70.5 h [%] |
| --- | --- |
| Cc1csc(CNc2cnn(CC(F)(F)F)c2)n1 | -2.55 |
| O=C(Nc1nncs1)N1CCCN(C2CCCC2)CC1 | 18.5 |
| O=C(NCc1ccco1)c1cccc(CN2CCCC2CO)c1 (stereo not given) | -8.88 |
| O=C(Cc1ccsc1)N1CCC(Cn2cc(CCO)nn2)CC1 | -14.1 |
| CC1CCCN1Cc1cccc(C(=O)Nc2ccc3c(c2)CCC3=O)c1 (stereo not given) | 5.96 |
| Cc1noc(C)c1CN(C)c1nc(C2CCCC2)nc2c1cnn2C | 9.62 |
| Cc1cc(CN2CCC(CNS(=O)(=O)c3ccccc3Cl)CC2)c(C)o1 | -10.4 |
| CCn1ccc(NC(=O)CCc2c(C)nn(C)c2C)n1 | 18.2 |
| CC(C)c1nc2n(n1)CC(NCc1cc3ccccc3o1)CC2 (stereo not given) | 12.7 |
| COc1ccccc1CN(C)C(=O)CN1CC(n2nc(C)cc2C)C1 | -2.12 |
| Cn1cc(CNc2cnn(CC3CCCO3)c2)c(-c2ccncc2)n1 (stereo not given) | 4.43 |
| Cc1ccc(C)c(S(=O)(=O)NC(=O)c2cccc3c2OCCO3)c1 | -104 |
| c1ncn(CC2CCCN2Cc2csc(C3CCCCC3)n2)n1 (stereo not given) | 1.84 |
| CN1CCC(N2CCOC[C@H]2c2nc(C(C)(C)C)c[nH]2)CC1 | 0.765 |
| CC(C)(C)NC(=O)c1cnc2n1CCCC2 | -6.71 |
| Cc1cnn(CCNCC(O)COc2cc(Cl)ccc2Cl)c1 (stereo not given) | -14.6 |
| CCC1c2ccsc2CCN1C(=O)NCc1ccnc(N(C)C)c1 (stereo not given) | -9.44 |
| Cc1cccnc1CNC(=O)NC(C)Cc1c(C)nn(C)c1C (stereo not given) | -5.5 |
| Cc1cc(C(=O)NCCC2CN(C)CCO2)c2cccc(C)c2n1 (stereo not given) | -11.4 |
| CC(C)(C)c1noc(CCC(=O)NCC2CCS(=O)(=O)C2)n1 (stereo not given) | 1.1 |
| CN1CCc2c(c(COc3cncnc3)nn2CC2CC2)C1 | 5.89 |
| COCCn1cc(C(=O)N2CCCC2c2cc(C)on2)c2ccccc21 (stereo not given) | 1.11 |
| CC(C)(C)[S+]([O-])CCNC(=O)c1cccc2ncccc12 (stereo not given) | -8.58 |

| SMILES | cytotoxicity at 70.5 h [%] |
| --- | --- |
| CC(C)N(C)CCCNC(=O)c1cnn(C(C)C)c1C(F)(F)F | 13.9 |
| Cn1c(N)nnc1SCC1OCCc2ccccc21 (stereo not given) | 6.39 |
| Cc1ccc(C(NC(=O)CCNC(=O)c2ccoc2)C(F)(F)F)cc1 (stereo not given) | -0.123 |
| CN1CCN(CC(NCc2cccc(O)c2)c2ccccc2)CC1 (stereo not given) | -5.45 |
| CN(CC(=O)NC(Cc1ccsc1)c1cccnc1)Cc1cccnc1 (stereo not given) | 19.4 |
| Cc1cnn(CC(C)NCCc2cccs2)c1 (stereo not given) | 23.7 |
| COc1ccc(-n2c(SC)nc(O)c(Cc3ccccc3)c2=O)cc1 | -2.29 |
| Cc1cccc(CN2CCC3(CCCN(C(=O)CN(C)C)C3)C2=O)n1 (stereo not given) | 2.41 |
| Cc1nc(-c2cccc(N3CCC(N4CCCC(C#N)C4)CC3)c2)cs1 (stereo not given) | 22.1 |
| Cc1ccc(CN(C)C(=O)CN2CCc3ccccc3C2)o1 | -6.98 |
| COC(=O)NCCC(=O)NC(c1ccc(Cl)cc1)C(F)(F)F (stereo not given) | -8.05 |
| Cn1cc(CN2CCC3(CCCN(C(=O)c4cscn4)C3)C2)cn1 (stereo not given) | -3.85 |
| Cc1ccc(C(=O)NCCCC2(C3OCCO3)CCOCC2)cc1C | 1.93 |
| CCOCC1CN(CC2CCC2)Cc2nnn(CC3CC3)c21 (stereo not given) | -0.482 |
| O=S(=O)(c1ccc(F)cc1)N1CCCC(c2nccs2)C1 (stereo not given) | -2.41 |
| CC(C)[C@H](NS(C)(=O)=O)C(=O)NCc1cc(-c2ccco2)n[nH]1 | -13.8 |
| O=C(C1CCCC1)N1CC2(CCNC2)OCc2ccccc21 (stereo not given) | -9.78 |
| CC(C)NC(=O)N1CCC2(C1)CN(c1ccsc1)C(=O)CN2C (stereo not given) | -9.03 |
| O=C(COc1ccc2c(c1)CCC2)N1CCOCC1c1ncon1 (stereo not given) | -10.4 |
| Cc1ccoc1C(=O)NCCOc1ccc(C(F)(F)F)cn1 | 18.3 |
| CC(C)n1cnnc1CN(C)CC1CCOC1 (stereo not given) | -11.8 |
| CCc1sc(-c2nnc(CNCCn3cccn3)o2)cc1C | -0.343 |
| COc1ccccc1CC(=O)NCCCN1CCCC1C(=O)N(C)C (stereo not given) | 2.29 |

| SMILES | cytotoxicity at 70.5 h [%] |
| --- | --- |
| CCN(CC)C(=O)[C@@H]1C[C@@H](N)CN1c1nc(N2CCCC2)nc(C)c1C | 25.5 |
| CC(=O)N1Cc2ccccc2CC1C(=O)Nc1cc(C)ccn1 (stereo not given) | -15.2 |
| Cc1noc(NS(=O)(=O)c2ccc(Cl)s2)c1C | -0.524 |
| CC(C)CNC(=O)Nc1cccc(OCC#N)c1 | -7.35 |
| Cc1ccccc1C(=O)NCc1ccnc(N(C)C)c1 | 0.094 |
| c1cnc(N2CC[C@@H]3O[C@@H](COCc4cccnc4)CC[C@@H]32)nc1 | -0.916 |
| Cc1ccc(CN2CC[C@H]3C[C@H](C(=O)N(C)C)O[C@H]3C2)cc1 | -17.2 |
| O=C1NC2(CCNCC2)CC1c1cccnc1 (stereo not given) | -7.17 |
| COCc1cc(CNCc2c(C)n(CC(N)=O)c3ccccc23)n[nH]1 | -9.7 |
| O=C(C1CCOCC1)N1CCC(O)(Cn2ccc3ccncc32)CC1 | -6.06 |
| O=C1N(CC2CCCCC2)CCCC1(O)CN1CCc2[nH]ncc2C1 (stereo not given) | -7.48 |
| CCOc1cc(C(=O)N2CCOCC2)cc2occc12 | 22.3 |
| CCOc1ccccc1C(CC(=O)N(C)c1ccccc1)NC(C)=O (stereo not given) | 15.9 |
| COc1c(CNCc2ccc(C(=O)N3CCCC3)cc2)c(C)nn1C | 10.8 |
| CN(CC1CCC1)C(=O)c1ccc(-c2nc(C3CC3)n[nH]2)cc1 | -8.67 |
| Cc1noc(-c2ccc(N(C)Cc3ccncn3)nc2)n1 | -5.88 |
| CNC(=O)C1CCN(C(=O)NCCc2ccc(Cl)s2)CC1 | -5.01 |
| N#Cc1cccc(CN2CCCC2c2ccc[nH]2)c1 (stereo not given) | 15.2 |
| CCN(Cc1ccc2c(c1)OCO2)C(=O)c1ccc(C)[nH]c1=O | 35.4 |
| O=C(Cc1ccc(CO)cc1)N1CCN(c2ccccc2Cl)C(=O)C1 | -9.48 |
| CCCC(C)(C)NC(=O)c1cnc(CC)s1 | -1.12 |
| CCCC(=O)NCCCn1ncc2c(C)cccc21 | -12.9 |
| Cc1cc(N)nc(C2(C)CCCN2C(=O)Cc2ccc(F)cc2)n1 (stereo not given) | -8.7 |

| SMILES | cytotoxicity at 70.5 h [%] |
| --- | --- |
| c1ccc(CN2CCc3ncnc(C4CCOC4)c3CC2)nc1 (stereo not given) | -2.85 |
| O=C(COc1ccc(F)cc1)N1CCO[C@H]2[C@@H](OCC3CC3)CC[C@@H]21 | -6.33 |
| CCN1CCCC(c2cc(Nc3cnccn3)nc(C)n2)C1 (stereo not given) | -6.21 |
| CN1CCc2nc(C3CCCCN3Cc3ccccc3Cl)ncc2C1 (stereo not given) | -4.18 |
| c1cnc(N2CCCC3(CCN(Cc4ccsc4)C3)C2)nc1 (stereo not given) | 11.1 |
| COc1ccc(-n2cnnc2SCC(C)(C)O)cn1 | -3.59 |
| CC(=O)N1CCC(C(=O)c2cnn(-c3ccccc3)c2N)C1 (stereo not given) | -7.91 |
| CCC[C@H]1CN(S(C)(=O)=O)C[C@@H]1NC(=O)Cc1ccc(OC)cc1 | 9.24 |
| Fc1ccc(-c2noc([C@@H]3Cc4nc[nH]c4CN3)n2)cc1 | -11.7 |
| CC(=O)Nc1ccccc1Sc1nc(Br)nn1C | -4.88 |
| CC(=O)N1CCC2(CC1)CN(C(=O)c1ccc3c(c1)OCO3)C2 | 5.17 |
| CN1CCN(C(=O)[C@@H]2CN(C)C[C@]23COc2ccc(F)cc2C3=O)CC1 | 28.4 |
| CCc1ccc(C(=O)N2CCC(Nc3ccc(C)nn3)CC2)o1 | -4.81 |
| CC(C)NC(=O)NC(=O)C(C)N1CCN(C2CCN(C(C)C)CC2)CC1 (stereo not given) | -3.33 |
| CC(c1cccnc1)N1CCN(CCc2ccccn2)CC1 (stereo not given) | -0.575 |
| NC(=O)C1CCN(C(=O)CCCc2nnc(-c3ccccc3)o2)CC1 | -10.4 |
| CN(C)c1nccc(CNC(=O)NCc2ccco2)n1 | -8.38 |
| COCCn1cc(CC(=O)Nc2c(C)nn(C)c2C)c2ccccc21 | -5.58 |
| COc1ccc(C)cc1CN(C)CCCNS(C)(=O)=O | 7.17 |
| O=C(Nc1nc2c(s1)CN(S(=O)(=O)C1CC1)CC2)c1ccc(Cl)s1 | -11.1 |
| Cc1nc(NC(=O)NCc2nc3cccc(C)c3n2C)oc1C | 13.5 |
| O=C(NCCCn1ccccc1=O)c1cnc(-c2ccsc2)s1 | -11.3 |
| COCCN1CCO[C@@H]2CN(Cc3ccc(C)s3)C[C@@H]2C1 | -2.59 |
